Among the data in PubChem BioAssay (NCI) are TGI and GI50 values, retold here.

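96-well plates; 48 h exposure; 5 concentrations. Endpoints by linear interpolation between flanking doses. Not reached: highest tested concentration assigned. Here, GI50 denotes the concentration required for 50% inhibition of growth. At the TGI there is no net growth.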

As a reminder, the TGI is the concentration giving total growth inhibition. Lower therefore signals greater sensitivity of the cells. Broadly, the GI50 is the concentration at which growth is held to half of that of the control.

Test systems include HCT-15 colon; HOP-62 NSCLC; KM12 colon; NCI-H23 lung; NCI-H460 lung; OVCAR-5 ovarian; RPMI-8226 leukemia; SF-295 CNS; SF-539 CNS; UO-31 renal.
Assay in all cases: DTP human tumour cell line panel, 48 h

`CCCC(N)C(=O)c1ccccc1` (centres undefined): the TGI with HCT-15 colon, in the experiment on HOP-62 NSCLC, in the experiment with KM12 colon, in the experiment with NCI-H23 lung, in the experiment on NCI-H460 lung and in the experiment on OVCAR-5 ovarian was over 100 µM each time. Further, the TGI in the experiment on RPMI-8226 leukemia, in the experiment with SF-295 CNS, with SF-539 CNS and in the experiment on UO-31 renal was over 100 µM throughout.
Regarding `CCOc1ccc(/C(C=O)=C(\Cl)c2ccc(OC)c(OC)c2)cc1`, the TGI in the experiment with HCT-15 colon, with NCI-H23 lung, in the experiment on NCI-H460 lung, in the experiment on RPMI-8226 leukemia, in the experiment with SF-295 CNS and in the experiment with SF-539 CNS was over 100 µM throughout. This compound gave a total growth inhibition concentration (TGI) in the experiment with UO-31 renal of over 100 µM.
On to `O=C(O)C1CCC(=O)N1S(=O)(=O)c1ccccc1` (centres undefined), for which the TGI in the experiment with HCT-15 colon, in the experiment with HOP-62 NSCLC, with KM12 colon, in the experiment with NCI-H23 lung, in the experiment on NCI-H460 lung and with OVCAR-5 ovarian was over 100 µM throughout. The TGI in the experiment on RPMI-8226 leukemia, in the experiment on SF-295 CNS, in the experiment with SF-539 CNS and in the experiment with UO-31 renal was over 100 µM throughout.
As for `C=C1C(=O)O[C@@H]2[C@H]1CCC(C)=C1C=CC(=O)[C@]12C`, the TGI with KM12 colon is 31.4 µM; with NCI-H460 lung it was 35.1 µM; in the experiment with OVCAR-5 ovarian, 31.8 µM; in the experiment with RPMI-8226 leukemia it was 49.7 µM; with SF-295 CNS, 32.7 µM; in the experiment on SF-539 CNS it was 30 µM. In addition, the concentration for total growth inhibition (TGI) in the experiment with UO-31 renal is 28.7 µM.
`CC(=O)C=NCC(=O)O`: the concentration for total growth inhibition (TGI) in the experiment on HCT-15 colon, in the experiment with HOP-62 NSCLC, in the experiment with KM12 colon, in the experiment with NCI-H23 lung, with NCI-H460 lung and in the experiment with OVCAR-5 ovarian was over 100 µM throughout. Also, the total growth inhibition concentration (TGI) in the experiment with RPMI-8226 leukemia, with SF-295 CNS and with SF-539 CNS was over 100 µM in each case.
On to `c1ccc(N=c2nc(N3CCOCC3)ss2)cc1`, for which the TGI in the experiment on HCT-15 colon is 29 µM; with HOP-62 NSCLC, over 100 µM; in the experiment on KM12 colon it was 32.5 µM; with NCI-H23 lung, over 100 µM; with NCI-H460 lung it was 34.7 µM; in the experiment with OVCAR-5 ovarian it was 52.1 µM. Also, the TGI in the experiment with SF-295 CNS was 35.1 µM; in the experiment with SF-539 CNS it was 32.3 µM; in the experiment with UO-31 renal, 50.2 µM.
Turning to `N#CC(Nc1cccc(C(F)(F)F)c1)c1ccccc1C(F)(F)F` (centres undefined), the TGI in the experiment with HCT-15 colon turned out to be 17.8 µM; with HOP-62 NSCLC, 10.8 µM; in the experiment on KM12 colon, 19.9 µM; in the experiment with NCI-H23 lung it was 27.6 µM; in the experiment with NCI-H460 lung it was 29.9 µM; in the experiment on OVCAR-5 ovarian it was 28.4 µM. In addition, the TGI stood at 22.2 µM with SF-295 CNS, 33.1 µM with SF-539 CNS and 31.9 µM in the experiment with UO-31 renal.
Regarding `COc1ccc(-c2nn(-c3cccc(NC(=O)Nc4ccccc4)c3)cc2-c2ccncc2)cc1Cl`, the GI50 in the experiment with HCT-15 colon is 1.96 µM; with HOP-62 NSCLC, 3.12 µM; in the experiment on KM12 colon, 2.25 µM; in the experiment on NCI-H23 lung, 3.5 µM; in the experiment with NCI-H460 lung, 2.06 µM; in the experiment with OVCAR-5 ovarian it was 2.5 µM. Moreover, the GI50 with RPMI-8226 leukemia is 2.14 µM; with SF-295 CNS, 2.01 µM; in the experiment on SF-539 CNS, 1.8 µM; with UO-31 renal, 1.5 µM. Besides, the TGI with HCT-15 colon is 4.98 µM; with HOP-62 NSCLC it was 9.13 µM; in the experiment on KM12 colon, 4.89 µM; with NCI-H23 lung it was over 100 µM; in the experiment on NCI-H460 lung it was 4.48 µM; with OVCAR-5 ovarian it was 8.79 µM. In addition, the TGI with RPMI-8226 leukemia was determined as 5.83 µM; with SF-295 CNS it was 6.32 µM; with SF-539 CNS, 3.5 µM; in the experiment with UO-31 renal, 4.02 µM.
Regarding `NC1(C(=O)O)CCc2ccc(N(CCCl)CCCl)cc2C1` (centres undefined), the TGI in the experiment with HCT-15 colon is over 100 µM; in the experiment with HOP-62 NSCLC, 63.5 µM; with KM12 colon, over 100 µM; in the experiment with NCI-H23 lung, over 100 µM; in the experiment with NCI-H460 lung, over 100 µM; in the experiment with OVCAR-5 ovarian it was over 100 µM. Further, the TGI with RPMI-8226 leukemia, in the experiment with SF-295 CNS, in the experiment with SF-539 CNS and with UO-31 renal was over 100 µM each time.
As for `CCC(=O)NC(Nc1cccc(F)c1)(C(F)(F)F)C(F)(F)F`, the TGI with HCT-15 colon, with KM12 colon, in the experiment with NCI-H23 lung, in the experiment with NCI-H460 lung, in the experiment with OVCAR-5 ovarian and in the experiment with RPMI-8226 leukemia was over 100 µM each time. Also, the TGI in the experiment with SF-295 CNS, in the experiment on SF-539 CNS and in the experiment on UO-31 renal was over 100 µM in each case.
Turning to `Cc1cc2c(C(C)C)c(O)c(O)c(C=NCCO)c2c(O)c1-c1c(C)cc2c(C(C)C)c(O)c(O)c(C=NCCO)c2c1O`, the concentration for total growth inhibition (TGI) in the experiment with HCT-15 colon was 2.9 µM; in the experiment on HOP-62 NSCLC it was 5.96 µM; in the experiment with KM12 colon, 2.4 µM; in the experiment on NCI-H23 lung, 4.16 µM; in the experiment on NCI-H460 lung, 2.41 µM; with OVCAR-5 ovarian it was 9.63 µM. Moreover, the TGI came to 4.9 µM with RPMI-8226 leukemia, 5.51 µM in the experiment with SF-295 CNS, 5.37 µM in the experiment on SF-539 CNS and 11 µM with UO-31 renal.
`O=C(Nc1ccc(Sc2ccc(N=Nc3c(O)c(S(=O)(=O)O)cc4cc(S(=O)(=O)O)ccc34)cc2)cc1)c1ccc(N=Nc2c(O)ccc3c(S(=O)(=O)O)cc(S(=O)(=O)O)cc23)cc1`: the TGI with HCT-15 colon, in the experiment with HOP-62 NSCLC, with KM12 colon, with NCI-H23 lung, with NCI-H460 lung and in the experiment on OVCAR-5 ovarian was over 100 µM throughout. Further, the total growth inhibition concentration (TGI) with RPMI-8226 leukemia was 73.4 µM; in the experiment with SF-295 CNS it was over 100 µM; in the experiment with SF-539 CNS it was over 100 µM; with UO-31 renal it was over 100 µM.
Take `CN1C[C@H]2[C@@H](C1=O)[C@H](c1ccccc1)ON2C`: the concentration for total growth inhibition (TGI) with HCT-15 colon, in the experiment on HOP-62 NSCLC, in the experiment with NCI-H23 lung, in the experiment with NCI-H460 lung, in the experiment with OVCAR-5 ovarian and in the experiment with RPMI-8226 leukemia was over 100 µM in each case. Moreover, the total growth inhibition concentration (TGI) in the experiment with SF-295 CNS and with UO-31 renal was over 100 µM throughout.
With `CC(=O)O[C@H]1C=CC(=O)C(C)CC1C` (some centres undefined), the concentration for total growth inhibition (TGI) in the experiment on HOP-62 NSCLC, in the experiment on KM12 colon, in the experiment on NCI-H23 lung, with NCI-H460 lung, in the experiment on OVCAR-5 ovarian and in the experiment with SF-295 CNS was over 100 µM in each case. In addition, the TGI in the experiment on SF-539 CNS and in the experiment on UO-31 renal was over 100 µM each time.
`Clc1ccc(CNc2nc(Cl)c3[nH]cnc3n2)cc1Cl`: the TGI with HCT-15 colon was over 100 µM; in the experiment with HOP-62 NSCLC, 89.2 µM; with KM12 colon it was over 100 µM; in the experiment on NCI-H23 lung it was over 100 µM; in the experiment with NCI-H460 lung, 73.3 µM; in the experiment on OVCAR-5 ovarian it was over 100 µM. Also, the TGI was over 100 µM in the experiment with SF-295 CNS, 45.2 µM in the experiment with SF-539 CNS and 60 µM in the experiment with UO-31 renal.
Turning to `O=C(Nc1c(C(=O)NC2CCCCC2)[nH]c(=O)[nH]c1=O)c1ccc(Cl)cc1`, the TGI with HCT-15 colon, in the experiment with HOP-62 NSCLC, in the experiment on KM12 colon, in the experiment on NCI-H460 lung, in the experiment with OVCAR-5 ovarian and with RPMI-8226 leukemia was over 100 µM each time. Also, the TGI in the experiment on SF-295 CNS, in the experiment on SF-539 CNS and in the experiment on UO-31 renal was over 100 µM throughout.
`Fc1ccc(-c2nn3c(-c4cc(C(F)(F)F)cc(C(F)(F)F)c4)nnc3s2)cc1`: the GI50 is over 50 µM in the experiment on HCT-15 colon; 1.2 µM in the experiment with HOP-62 NSCLC; over 50 µM in the experiment on KM12 colon; 3.05 µM with NCI-H23 lung; 1.62 µM in the experiment on NCI-H460 lung; over 50 µM in the experiment with OVCAR-5 ovarian. Besides, the GI50 was over 50 µM in the experiment on RPMI-8226 leukemia, 1.72 µM in the experiment on SF-295 CNS, 3.07 µM in the experiment with SF-539 CNS and 1.32 µM with UO-31 renal. Besides, the total growth inhibition concentration (TGI) in the experiment on HCT-15 colon is over 50 µM; with HOP-62 NSCLC, 3.35 µM; in the experiment on KM12 colon, over 50 µM; in the experiment on NCI-H23 lung, over 50 µM; in the experiment on NCI-H460 lung, over 50 µM; in the experiment on OVCAR-5 ovarian, over 50 µM. For the same compound, the TGI in the experiment with RPMI-8226 leukemia, in the experiment on SF-295 CNS, in the experiment with SF-539 CNS and in the experiment on UO-31 renal was over 50 µM throughout.
